# Source: patent US20260262643A1, “HERBICIDAL BENZOXAZINES” (FMC CORPORATION, priority 2022, published 2026)
# Experiments:
# pigweed, palmer [1] = assay: Test A postemergence; type: in vivo, Amaranthus palmeri; details: postemergence, 10 days; for Pigweed, Palmer plant response rating: 125 g ai/ha, 0 to 100 scale, 0 no effect, 100 complete control; for Plant response rating, Pigweed, Palmer: 500 g ai/ha, visual injury, 0 to 100 scale (0 no effect, 100 complete control)
# In short: (§1)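 Seeds in loam–sand blend received a directed preemergence soil spray of compound in non-phytotoxic solvent with surfactant; postemergence plants (2–10 cm, one- to two-leaf stage) were sprayed with the same formulation. After 10 days in greenhouse, injury was rated visually versus untreated controls, 0 (no effect) to 100 (complete control).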
# corn [2] = assay: Test A postemergence; type: in vivo, Zea mays; details: postemergence, 10 days; for Corn plant response rating: 125 g ai/ha, 0 to 100 scale, 0 no effect, 100 complete control; for Plant response rating, Corn: 500 g ai/ha, visual injury, 0 to 100 scale (0 no effect, 100 complete control)
# In short: as §1
# corn [3] = assay: Test A preemergence; type: in vivo, Zea mays
# In short: as §1
# rice = assay: Test B flooded paddy test; type: in vivo, Oryza sativa; details: 250 g ai/ha, Flood, 13 days, 0 to 100 scale (0 no effect, 100 complete control)
# In short: (§2)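 Percent weed or crop control, judged by eye on a 0–100 scale 13 days post-treatment, reflects compound added to a 3 cm flood maintained over 2-leaf plants in the greenhouse. Missing entries are marked with a dash.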
# kochia [4] = assay: Test A postemergence; type: in vivo, Bassia scoparia; details: postemergence, 10 days; for Kochia plant response rating: 125 g ai/ha, 0 to 100 scale, 0 no effect, 100 complete control; for Plant response rating, Kochia: 500 g ai/ha, visual injury, 0 to 100 scale (0 no effect, 100 complete control)
# In short: as §1
# barnyardgrass = assay: Test B flooded paddy test; type: in vivo, Echinochloa crus-galli; details: 250 g ai/ha, Flood, 13 days, 0 to 100 scale (0 no effect, 100 complete control)
# In short: as §2
# goosegrass [5] = assay: Test A postemergence; type: in vivo, Eleusine indica; details: postemergence, 10 days; for Goosegrass plant response rating: 125 g ai/ha, 0 to 100 scale, 0 no effect, 100 complete control; for Plant response rating, Goosegrass: 500 g ai/ha, visual injury, 0 to 100 scale (0 no effect, 100 complete control)
# In short: as §1
# blackgrass [6] = assay: Test A postemergence; type: in vivo, Alopecurus myosuroides; details: postemergence, 10 days; for Blackgrass plant response rating: 125 g ai/ha, 0 to 100 scale, 0 no effect, 100 complete control; for Plant response rating, Blackgrass: 500 g ai/ha, visual injury, 0 to 100 scale (0 no effect, 100 complete control)
# In short: as §1
# soybean [7] = assay: Test A preemergence; type: in vivo, Glycine max
# In short: as §1
# wheat [8] = assay: Test A preemergence; type: in vivo, Triticum aestivum
# In short: as §1
# ducksalad = assay: Test B flooded paddy test; type: in vivo, Heteranthera limosa; details: 250 g ai/ha, Flood, 13 days, 0 to 100 scale (0 no effect, 100 complete control)
# In short: as §2
# ryegrass, Italian [9] = assay: Test A preemergence; type: in vivo, Lolium multiflorum
# In short: as §1
# foxtail, giant [10] = assay: Test A postemergence; type: in vivo, Setaria faberi; details: postemergence, 10 days; for Foxtail, Giant plant response rating: 125 g ai/ha, 0 to 100 scale, 0 no effect, 100 complete control; for Plant response rating, Foxtail, Giant: 500 g ai/ha, visual injury, 0 to 100 scale (0 no effect, 100 complete control)
# In short: as §1
# ryegrass, Italian [11] = assay: Test A postemergence; type: in vivo, Lolium multiflorum; details: postemergence, 10 days; for Ryegrass, Italian plant response rating: 125 g ai/ha, 0 to 100 scale, 0 no effect, 100 complete control; for Plant response rating, Ryegrass, Italian: 500 g ai/ha, visual injury, 0 to 100 scale (0 no effect, 100 complete control)
# In short: as §1
# sedge, umbrella = assay: Test B flooded paddy test; type: in vivo, Cyperus difformis; details: 250 g ai/ha, Flood, 13 days, 0 to 100 scale (0 no effect, 100 complete control)
# In short: as §2
# foxtail, giant [12] = assay: Test A preemergence; type: in vivo, Setaria faberi
# In short: as §1
# horseweed = assay: Test A postemergence; type: in vivo, Erigeron canadensis; details: postemergence, 10 days; for Horseweed plant response rating: 125 g ai/ha, 0 to 100 scale, 0 no effect, 100 complete control; for Plant response rating, Horseweed: 500 g ai/ha, visual injury, 0 to 100 scale (0 no effect, 100 complete control)
# In short: as §1
# wheat [13] = assay: Test A postemergence; type: in vivo, Triticum aestivum; details: postemergence, 10 days; for Wheat plant response rating: 125 g ai/ha, 0 to 100 scale, 0 no effect, 100 complete control; for Plant response rating, Wheat: 500 g ai/ha, visual injury, 0 to 100 scale (0 no effect, 100 complete control)
# In short: as §1
# pigweed, palmer [14] = assay: Test A preemergence; type: in vivo, Amaranthus palmeri
# In short: as §1
# blackgrass [15] = assay: Test A preemergence; type: in vivo, Alopecurus myosuroides
# In short: as §1
# galium = assay: Test A postemergence; type: in vivo, Galium aparine; details: postemergence, 10 days; for Galium plant response rating: 125 g ai/ha, 0 to 100 scale, 0 no effect, 100 complete control; for Plant response rating, Galium: 500 g ai/ha, visual injury, 0 to 100 scale (0 no effect, 100 complete control)
# In short: as §1
# soybean [16] = assay: Test A postemergence; type: in vivo, Glycine max; details: postemergence, 10 days; for Soybean plant response rating: 125 g ai/ha, 0 to 100 scale, 0 no effect, 100 complete control; for Plant response rating, Soybean: 500 g ai/ha, visual injury, 0 to 100 scale (0 no effect, 100 complete control)
# In short: as §1
# ragweed [17] = assay: Test A preemergence; type: in vivo, Ambrosia artemisiifolia
# In short: as §1
# goosegrass [18] = assay: Test A preemergence; type: in vivo, Eleusine indica
# In short: as §1
# ragweed [19] = assay: Test A postemergence; type: in vivo, Ambrosia artemisiifolia; details: postemergence, 10 days; for Ragweed plant response rating: 125 g ai/ha, 0 to 100 scale, 0 no effect, 100 complete control; for Plant response rating, Ragweed: 500 g ai/ha, visual injury, 0 to 100 scale (0 no effect, 100 complete control)
# In short: as §1
# kochia [20] = assay: Test A preemergence; type: in vivo, Bassia scoparia
# In short: as §1
# oat, wild [21] = assay: Test A postemergence; type: in vivo, Avena fatua; details: postemergence, 10 days; for Oat, Wild plant response rating: 125 g ai/ha, 0 to 100 scale, 0 no effect, 100 complete control; for Plant response rating, Oat, Wild: 500 g ai/ha, visual injury, 0 to 100 scale (0 no effect, 100 complete control)
# In short: as §1
# oat, wild [22] = assay: Test A preemergence; type: in vivo, Avena fatua
# In short: as §1
# [23] = 125 g ai/ha, visual injury after 10 days, 0 to 100 scale, 0 is no effect, 100 is complete control
# [24] = 500 g ai/ha, 0 to 100 scale (0 no effect, 100 complete control), 10 days
compound,measurement,setting,value
CCc1ccc(-n2cnc(C3CCC3)n2)cc1C(=O)N1C[C@H](C)Oc2c(Cl)cccc21 [Compound 104],"Pigweed, Palmer plant response rating","pigweed, palmer [1]",80
same,"Plant response rating, Pigweed, Palmer","pigweed, palmer [1]",100
same,Corn plant response rating,corn [2],40
same,"Plant response rating, Corn",corn [2],80
same,"Plant response rating, Corn",corn [3]; [23],0
same,"Plant response rating, Corn",corn [3]; [24],0
same,"Plant response rating, Rice",rice,20
same,Kochia plant response rating,kochia [4],80
same,"Plant response rating, Kochia",kochia [4],100
same,"Plant response rating, Barnyardgrass",barnyardgrass,60
same,Goosegrass plant response rating,goosegrass [5],50
same,"Plant response rating, Goosegrass",goosegrass [5],80
same,Blackgrass plant response rating,blackgrass [6],0
same,"Plant response rating, Blackgrass",blackgrass [6],50
same,"Plant response rating, Soybean",soybean [7]; [23],60
same,"Plant response rating, Soybean",soybean [7]; [24],90
same,"Plant response rating, Wheat",wheat [8]; [23],0
same,"Plant response rating, Wheat",wheat [8]; [24],0
same,"Plant response rating, Ducksalad",ducksalad,25
same,"Plant response rating, Ryegrass, Italian","ryegrass, Italian [9]; [23]",50
same,"Plant response rating, Ryegrass, Italian","ryegrass, Italian [9]; [24]",90
same,"Foxtail, Giant plant response rating","foxtail, giant [10]",90
same,"Plant response rating, Foxtail, Giant","foxtail, giant [10]",90
same,"Ryegrass, Italian plant response rating","ryegrass, Italian [11]",30
same,"Plant response rating, Ryegrass, Italian","ryegrass, Italian [11]",60
same,"Plant response rating, Sedge, Umbrella","sedge, umbrella",98
same,"Plant response rating, Foxtail, Giant","foxtail, giant [12]; [23]",100
same,"Plant response rating, Foxtail, Giant","foxtail, giant [12]; [24]",100
same,Horseweed plant response rating,horseweed,0
same,"Plant response rating, Horseweed",horseweed,0
same,Wheat plant response rating,wheat [13],10
same,"Plant response rating, Wheat",wheat [13],10
same,"Plant response rating, Pigweed, Palmer","pigweed, palmer [14]; [23]",90
same,"Plant response rating, Pigweed, Palmer","pigweed, palmer [14]; [24]",100
same,"Plant response rating, Blackgrass",blackgrass [15]; [23],30
same,"Plant response rating, Blackgrass",blackgrass [15]; [24],40
same,Galium plant response rating,galium,60
same,"Plant response rating, Galium",galium,100
same,Soybean plant response rating,soybean [16],100
same,"Plant response rating, Soybean",soybean [16],100
same,"Plant response rating, Ragweed",ragweed [17]; [23],0
same,"Plant response rating, Ragweed",ragweed [17]; [24],40
same,"Plant response rating, Goosegrass",goosegrass [18]; [23],100
same,"Plant response rating, Goosegrass",goosegrass [18]; [24],100
same,Ragweed plant response rating,ragweed [19],0
same,"Plant response rating, Ragweed",ragweed [19],30
same,"Plant response rating, Kochia",kochia [20]; [23],50
same,"Plant response rating, Kochia",kochia [20]; [24],100
same,"Oat, Wild plant response rating","oat, wild [21]",20
same,"Plant response rating, Oat, Wild","oat, wild [21]",40
same,"Plant response rating, Oat, Wild","oat, wild [22]; [23]",0
same,"Plant response rating, Oat, Wild","oat, wild [22]; [24]",70
CCc1ccc(-n2cnc(C(C)(C)C)n2)cc1C(=O)N1C[C@H](C)Oc2c(Cl)cccc21 [Compound 102],"Pigweed, Palmer plant response rating","pigweed, palmer [1]",90
same,"Plant response rating, Pigweed, Palmer","pigweed, palmer [1]",100
same,Corn plant response rating,corn [2],20
same,"Plant response rating, Corn",corn [2],80
same,"Plant response rating, Corn",corn [3]; [23],10
same,"Plant response rating, Corn",corn [3]; [24],20
same,"Plant response rating, Rice",rice,10
same,Kochia plant response rating,kochia [4],90
same,"Plant response rating, Kochia",kochia [4],90
same,"Plant response rating, Barnyardgrass",barnyardgrass,10
same,Goosegrass plant response rating,goosegrass [5],80
same,"Plant response rating, Goosegrass",goosegrass [5],80
same,Blackgrass plant response rating,blackgrass [6],0
same,"Plant response rating, Blackgrass",blackgrass [6],60
same,"Plant response rating, Soybean",soybean [7]; [23],50
same,"Plant response rating, Soybean",soybean [7]; [24],100
same,"Plant response rating, Wheat",wheat [8]; [23],0
same,"Plant response rating, Wheat",wheat [8]; [24],0
same,"Plant response rating, Ducksalad",ducksalad,65
same,"Plant response rating, Ryegrass, Italian","ryegrass, Italian [9]; [23]",80
same,"Plant response rating, Ryegrass, Italian","ryegrass, Italian [9]; [24]",100
same,"Foxtail, Giant plant response rating","foxtail, giant [10]",80
same,"Plant response rating, Foxtail, Giant","foxtail, giant [10]",90
same,"Ryegrass, Italian plant response rating","ryegrass, Italian [11]",50
same,"Plant response rating, Ryegrass, Italian","ryegrass, Italian [11]",50
same,"Plant response rating, Sedge, Umbrella","sedge, umbrella",95
same,"Plant response rating, Foxtail, Giant","foxtail, giant [12]; [23]",90
same,"Plant response rating, Foxtail, Giant","foxtail, giant [12]; [24]",100
same,Horseweed plant response rating,horseweed,0
same,"Plant response rating, Horseweed",horseweed,0
same,Wheat plant response rating,wheat [13],10
same,"Plant response rating, Wheat",wheat [13],30
same,"Plant response rating, Pigweed, Palmer","pigweed, palmer [14]; [23]",100
same,"Plant response rating, Pigweed, Palmer","pigweed, palmer [14]; [24]",100
same,"Plant response rating, Blackgrass",blackgrass [15]; [23],30
same,"Plant response rating, Blackgrass",blackgrass [15]; [24],50
same,Galium plant response rating,galium,50
same,"Plant response rating, Galium",galium,100
same,Soybean plant response rating,soybean [16],100
same,"Plant response rating, Soybean",soybean [16],100
same,"Plant response rating, Ragweed",ragweed [17]; [23],0
same,"Plant response rating, Ragweed",ragweed [17]; [24],0
same,"Plant response rating, Goosegrass",goosegrass [18]; [23],100
same,"Plant response rating, Goosegrass",goosegrass [18]; [24],100
same,Ragweed plant response rating,ragweed [19],20
same,"Plant response rating, Ragweed",ragweed [19],40
same,"Plant response rating, Kochia",kochia [20]; [23],80
same,"Plant response rating, Kochia",kochia [20]; [24],100
same,"Oat, Wild plant response rating","oat, wild [21]",10
same,"Plant response rating, Oat, Wild","oat, wild [21]",60
same,"Plant response rating, Oat, Wild","oat, wild [22]; [23]",40
same,"Plant response rating, Oat, Wild","oat, wild [22]; [24]",80
